What all share (format): cell-based
Assay [1] concerns RT-112 cells. The experiment in a line: Cell cycle distribution by flow cytometry. As to conditions: FIG. 3A. On the technique in general: A flow cytometer gives signals particle by particle.
In assay [2] the test system is RT-112. The experiment in a line: MTT assay, cell viability. The following applies: Homo sapiens; RT-112, Bladder, 72 hours; read-out: IC50 (μM, Mean ± SD). On the procedure:
(§1) Cells were cultured in RPMI-1640 (RT-112, KMS-11, SNU-16, HT-29, HCT-116, NCI—H520, Hep3B, PLC/PRF/5, HL-60, MOLT-4) and DMEM (HepG2, MCF-7, MDA-MB-231) with 10% FBS (v/v) and Penicillin/Streptomycin (100 U/ml). FU-DDLS-1 cell line was maintained in DMEM:F12 medium with 10% FBS. LiSa-2 cell line was maintained in IMDM/RPMI-1640 in a 4:1 ratio supplemented with 10% FBS, 2 mmol/L L-glutamine, and 0.1 mg/mL gentamicin. Human umbilical vein endothelial cells (HUVECs) were grown to confluence on 1% collagen, and maintained in 90% Medium 199 with 25 U/ml heparin, 30 μg/ml endothelial cell growth supplement (ECGS) adjusted to contain 1.5 g/L sodium bicarbonate, 10% FBS and Penicillin/Streptomycin (100 U/ml) Cultures were maintained at 37° C. in a humidified atmosphere of 5% CO2/95% air.
(§2) Cells were seeded in 96-well plates (5,000 cells/well) and incubated overnight for attachment, and were then treated with indicated agents in 10% FBS-supplemented medium for 72 hours. The medium was replaced with MTT (0.5 mg/mL) at 37° C. for 1 hours. After removal of medium, the cells were lysed with 100 μL per well dimethyl sulfoxide (DMSO), and absorbance at 550 nm was measured with microplate reader. The relative cell viability (%) was expressed as a percentage relative to a DMSO control cells.
For orientation: Tetrazolium assays rely on reduction of a dye to a coloured formazan, in cell work by metabolically active cells.

Assay [3] concerns HT-29. The experiment in a line: MTT assay, cell viability. The following applies: Homo sapiens; HT-29, Colorectal, 72 hours; read-out: IC50 (μM, Mean ± SD). The method, then:
as §1, §2

For assay [4], the system named is Hep3B. The experiment in a line: MTT assay, cell viability. As to conditions: Homo sapiens, Liver, 72 hours, read-out: IC50 (μM, Mean ± SD). On the procedure: as §1, §2
Assay [5] relates to PLC/PRF/5. The experiment in a line: MTT assay, cell viability. The following applies: Homo sapiens; PLC/PRF/5, Liver, 72 hours; read-out: IC50 (μM, Mean ± SD). The method, then:
as §1, §2

In assay [6] the test system is MCF-7. The experiment in a line: MTT assay, cell viability. As to conditions: Homo sapiens, MCF7; MCF-7, Breast, 72 hours; read-out: IC50 (μM, Mean ± SD). On the procedure:
as §1, §2

In assay [7] the test system is KMS-11. The experiment in a line: MTT assay, cell viability. As to conditions: Homo sapiens; KMS-11, Myeloma, 72 hours; read-out: IC50 (μM, Mean ± SD). The method, then:
as §1, §2

Assay [8] relates to FUDDLS. The experiment in a line: MTT assay, cell viability. As to conditions: Sarcoma, 72 hours, read-out: IC50 (μM, Mean ± SD). On the procedure: as §1, §2
Assay [9] concerns HCT-116. The experiment in a line: MTT assay, cell viability. The following applies: Homo sapiens; HCT-116, Colorectal, 72 hours; read-out: IC50 (μM, Mean ± SD). The method, then: as §1, §2
In assay [10] the test system is LISA-2. The experiment in a line: MTT assay, cell viability. As to conditions: LISA-2, Sarcoma, 72 hours; read-out: IC50 (μM, Mean ± SD). On the procedure:
as §1, §2

Assay [11] concerns MDA-MB-231. The experiment in a line: MTT assay, cell viability. The following applies: Homo sapiens; MDA-MB-231, Breast, 72 hours; read-out: IC50 (μM, Mean ± SD). On the procedure:
as §1, §2

Assay [12] deals with HepG2. The experiment in a line: MTT assay, cell viability. As to conditions: Homo sapiens; HepG2, Liver, 72 hours; read-out: IC50 (μM, Mean ± SD). On the procedure: as §1, §2

In the case of `CCN1CCN(c2ccc(Nc3cc(N(C)C(=O)Nc4c(Cl)c(OC)cc(OC)c4Cl)ncn3)cc2)CC1` [BGJ-398, 3-(2,6-Dichloro-3,5-dimethoxy-phenyl)-1-{6-[4-(4-ethylpiperazin-1-yl)-phenylamino]-pyrimidin-4-yl}-1-methyl-urea], the “G0/G1 cell cycle arrest” value in [1] (24 h) was “also observed”. In assay [1] (48 h to 72 h), the “accumulation of the sub-G1 phase (apoptotic cell death)” value is “induced pronounced apoptosis”. In addition, the IC50 in assay [2] is 1.7 ± 0.05 µM; in assay [3] it was 4.77 ± 0.14 µM; in assay [4] it was 0.72 ± 0.12 µM; in assay [5] it was 2.94 ± 0.11 µM; in assay [6] it was 5.07 ± 0.63 µM; in [7], 0.2 ± 0.05 µM. Besides, the IC50 in assay [8] was found to be 1.45 ± 0.17 µM; in assay [9], 3.98 ± 0.06 µM; in assay [10] it was 6.13 ± 0.06 µM; in assay [11], 4.27 ± 0.83 µM; in assay [12] it was 5.84 ± 0.25 µM.

A word on the IC50: it is the concentration at which inhibition is half-maximal.
